According to patent publication US20250099357A1, “ANT[…] WITH BETA CARBOLINE ALKALOID AND PHENOLIC ACID AND CO[…]” (Conopco, Inc., d/b/a UNILEVER, priority 2021, published 2025):

What was measured:
[1] = tested on: Enterobacter gergoviae ATCC 33028; assay: Liquid broth assay (MIC and checkerboard) against Enterobacter gergoviae; type: cell-based; conditions: Pluralibacter gergoviae, ATCC33028, component by itself, 30° C., 24 hours, OD600, <25% growth vs control, read-out: minimal inhibitory concentration (MIC)
Text: (§1) Naturally derived antimicrobial systems were made, as shown below by combining the beta carboline alkaloid and phenolic acid. Two pools were set up and each pool contained 1 organism. The strains involved were Enterobacter gergoviae ATCC 33028 of the family Pluralibacter gergoviae, a Gram-negative and Aspergillus brasiliensis ATCC 16404. The FIC test range was 16 times greater than the projected MIC for each sample.
(§2) The differing behaviors of inhibitory antimicrobials in isolation and mixtures have been widely explored using the concept of the Fractional Concentration and Fractional Inhibitory Concentration (FIC). See for instance JRW Lambert and R Lambert, J. Appl. Microbiol 95, 734 (2003); T. Jadavji, CG Prober and R Cheung, Antibacterial Agents and Chemotherapy 26, 91 (1984), and WO 2004/006876. MIC is the minimum inhibitory concentration a component prevents visible growth of a microbe. The FC and FIC parameters can be defined as follows: […]
(§3) Liquid broth assays (MIC and checkerboard) were conducted to identify the minimum concentration(s) of individual and binary combinations of natural preservation materials. […] Each of the two-preservation chemical/broth mixes was then combined in a third 96 well plate at varying concentrations and then inoculated with 1-5x106 microorganisms and incubated at 30° C. for 24 hours, after which optical densities at OD600 nm were measured.

[2] = tested on: Aspergillus brasiliensis ATCC 16404; assay: Liquid broth assay (MIC and checkerboard) against Aspergillus brasiliensis; type: cell-based; conditions: ATCC16404, component by itself, 30° C., 24 hours, OD600, <25% growth vs control
Text: as §1, §2, §3

COc1cc(C(=O)O)cc(OC)c1O [Syringic Acid, 4-Hydroxy-3,5-dimethoxybenzoic acid]
MIC [1]: > 50 mg/mL | MIC [2]: > 50 mg/mL
